Measured values from patent US8173635B2, “Kinase inhibitors” (Vertex Pharmaceuticals Incorporated, priority 2007, dated 2012).

Experiments:
Type in all cases: biochemical
PKC theta kinase = PKC theta kinase (Homo sapiens, UniProt Q04759); assay: PKC theta kinase inhibition, coupled-enzyme NADH absorbance assay (Ki); details: 240 μM ATP, 18 nM PKC theta, 30° C.; read-out: Ki PKC theta
How it was run: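 Coupled-enzyme kinase assay following NADH absorbance at 340 nm, in 100 mM HEPES pH 7.5, 10 mM MgCl2, 25 mM NaCl, 0.1 mM EDTA, 0.01% Brij. Compound in DMSO preincubated with enzyme 10 min at 30 °C. Ki from initial rates by non-linear regression.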

PKC delta kinase = PKC delta kinase (Homo sapiens, UniProt Q05655); assay: PKC delta kinase inhibition, coupled-enzyme NADH absorbance assay (Ki); details: 150 μM ATP, 46 nM PKC delta, 30° C.; read-out: Ki PKC delta
Sequence of PKC delta kinase (Q05655 whole entry): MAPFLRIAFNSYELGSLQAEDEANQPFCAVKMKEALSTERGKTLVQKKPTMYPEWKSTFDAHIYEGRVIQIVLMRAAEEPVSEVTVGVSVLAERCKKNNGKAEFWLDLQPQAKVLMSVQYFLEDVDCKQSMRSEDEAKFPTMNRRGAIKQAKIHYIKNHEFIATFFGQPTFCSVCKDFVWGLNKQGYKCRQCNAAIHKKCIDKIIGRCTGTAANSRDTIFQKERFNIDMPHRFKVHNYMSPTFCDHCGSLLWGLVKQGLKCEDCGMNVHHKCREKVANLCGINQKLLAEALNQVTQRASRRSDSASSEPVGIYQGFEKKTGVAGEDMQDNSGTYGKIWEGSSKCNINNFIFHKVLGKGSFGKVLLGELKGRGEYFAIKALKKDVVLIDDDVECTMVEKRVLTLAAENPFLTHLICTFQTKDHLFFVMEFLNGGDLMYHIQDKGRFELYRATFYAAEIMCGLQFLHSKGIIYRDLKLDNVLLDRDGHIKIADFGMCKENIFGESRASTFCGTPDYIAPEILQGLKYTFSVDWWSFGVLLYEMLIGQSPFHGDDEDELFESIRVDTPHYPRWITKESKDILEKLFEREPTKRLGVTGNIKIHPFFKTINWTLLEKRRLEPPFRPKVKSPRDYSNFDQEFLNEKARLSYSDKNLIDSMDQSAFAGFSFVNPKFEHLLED
How it was run: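 Assay buffer was 100 mM HEPES pH 7.5, 10 mM MgCl2, 25 mM NaCl, 0.1 mM EDTA, 0.01% Brij. Enzyme buffer was equilibrated with compound in DMSO for 10 min at 30 °C. Ki values were derived by non-linear regression of initial rate data.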

PKC alpha kinase = PKC alpha kinase (Homo sapiens, UniProt P17252); assay: PKC alpha kinase inhibition, coupled-enzyme NADH absorbance assay (Ki); details: 130 μM ATP, 4.5 nM PKC alpha, 30° C.; read-out: Ki PKC alpha

Sequence of PKC theta kinase (Q04759 whole entry): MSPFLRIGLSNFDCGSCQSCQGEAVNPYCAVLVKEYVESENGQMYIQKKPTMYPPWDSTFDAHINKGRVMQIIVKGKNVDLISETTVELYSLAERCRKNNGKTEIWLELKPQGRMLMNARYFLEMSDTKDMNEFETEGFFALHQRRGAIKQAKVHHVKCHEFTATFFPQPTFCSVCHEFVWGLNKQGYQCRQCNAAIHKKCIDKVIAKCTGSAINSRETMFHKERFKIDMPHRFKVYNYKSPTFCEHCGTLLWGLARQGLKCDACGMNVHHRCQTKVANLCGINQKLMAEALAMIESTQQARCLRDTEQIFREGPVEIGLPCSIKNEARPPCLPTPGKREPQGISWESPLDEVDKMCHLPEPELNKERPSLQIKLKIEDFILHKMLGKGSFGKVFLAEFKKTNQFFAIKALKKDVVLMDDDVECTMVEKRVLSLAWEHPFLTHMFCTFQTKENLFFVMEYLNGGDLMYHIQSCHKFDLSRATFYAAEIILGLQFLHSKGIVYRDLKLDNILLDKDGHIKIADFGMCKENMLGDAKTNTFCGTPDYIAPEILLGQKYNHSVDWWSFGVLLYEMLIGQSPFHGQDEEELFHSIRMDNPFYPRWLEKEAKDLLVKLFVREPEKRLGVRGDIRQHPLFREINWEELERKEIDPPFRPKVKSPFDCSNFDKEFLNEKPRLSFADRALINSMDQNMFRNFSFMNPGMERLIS

| SMILES | Ki (PKC theta kinase) [nM] | Ki (PKC delta kinase) [nM] | Ki (PKC alpha kinase) [nM] |
| --- | --- | --- | --- |
| CC(N)c1cccc(-c2ccnc3[nH]ncc23)c1 (stereo not drawn) [Compound 246] | < 500 | < 2800 | > 1200 |
| CCC(C)(CN)c1cccc(-c2ccnc3[nH]nc(C4CC4)c23)c1 (stereo not drawn) [Compound 266] | < 50 | < 50 | < 50 |
| CCC(C)(C#N)c1cc(CCN)cc(-c2ccnc3[nH]ncc23)c1 (stereo not drawn) [Compound 127] | < 500 | > 2000 | > 1200 |
| NCC1(c2cc(F)cc(-c3ccnc4[nH]nc(Br)c34)c2)CCC1 [Compound 261] | < 50 | < 50 | < 50 |
| CCc1n[nH]c2nccc(-c3cc(F)cc(C4(CN)CCC4)c3)c12 [Compound 263] | < 50 | < 500 | < 50 |
| CC(C)(C#N)c1cc(CN)cc(-c2ccnc3[nH]ncc23)c1 [Compound 76] | < 2800 | > 2800 | > 2800 |
| N#C[C@]1(c2cccc(-c3ccnc4[nH]ncc34)c2)C[C@H](N)C1 [Compound 229] | < 50 | < 500 | < 500 |
| CCC(C)(C#N)c1cc(CCCO)cc(-c2ccnc3[nH]ncc23)c1 (stereo not drawn) [Compound 103] | < 50 | > 2000 | < 2800 |
| CC#CC[C@](C)(CN)c1cccc(-c2ccnc3[nH]ncc23)c1 [Compound 185] | < 50 | < 50 | < 50 |
| NC(CC1CCCCC1)c1cccc(-c2ccnc3[nH]nc(C(F)(F)F)c23)c1 (stereo not drawn) [Compound 298] | > 700 | > 1200 | > 1200 |
| CCC(C#N)c1cc(C)cc(-c2ccnc3[nH]ncc23)c1 (stereo not drawn) [Compound 86] | < 500 | > 2800 | < 2800 |
| N#CC1(c2cc(CCO)cc(-c3ccnc4[nH]ncc34)c2)CC1 [Compound 114] | < 50 | > 2000 | > 1200 |
| CCC(C)(CN)c1cc(F)cc(-c2ccnc3[nH]nc(C(F)(F)F)c23)c1 (stereo not drawn) [Compound 277] | < 50 | < 50 | < 50 |
| NCC1(c2cccc(-c3ccnc4[nH]nc(C(F)(F)F)c34)c2)CC1 [Compound 278] | < 50 | < 500 | < 500 |
| CC(O)c1cccc(-c2ccnc3[nH]ncc23)c1 (stereo not drawn) [Compound 244] | > 700 | > 1200 | > 1200 |
| CCCc1cc(-c2ccnc3[nH]nc(Cl)c23)cc(C(C)(CC)CN)c1 (stereo not drawn) [Compound 210] | < 50 | < 2800 | < 500 |
| NCC1(c2cccc(-c3ccnc4[nH]nc(C(F)(F)F)c34)c2)CCOCC1 [Compound 214] | < 50 | < 500 | < 500 |
| Cc1cc(-c2ccnc3[nH]ncc23)cc(C2(CN)CNC(=O)O2)c1 (stereo not drawn) [Compound 310] | < 50 | > 1200 | < 2800 |
| C#CCC(C)(CN)c1cccc(-c2ccnc3[nH]ncc23)c1 (stereo not drawn) [Compound 135] | < 50 | < 50 | < 50 |

| SMILES | Ki (PKC theta kinase) [nM] | Ki (PKC delta kinase) [nM] | Ki (PKC alpha kinase) [nM] |
| --- | --- | --- | --- |
| NCC1(c2cc(F)cc(-c3ccnc4[nH]nc(Cl)c34)c2)CCOCC1 [Compound 257] | < 50 | < 500 | < 500 |
| CC(C)(O)C#Cc1cc(-c2ccnc3[nH]nc(C(F)(F)F)c23)cc(C2(C#N)CC2)c1 [Compound 315] | < 2800 | > 1200 | > 1200 |
| N#CCCc1cc(-c2ccnc3[nH]ncc23)cc(C2(C#N)CC2)c1 [Compound 240] | < 500 | > 2000 | > 1200 |
| OCC1CCc2ccc(-c3ccnc4[nH]ncc34)cc21 (stereo not drawn) [Compound 203, (6-(1H-Pyrazolo[3,4-b]pyridin-4-yl)-2,3-dihydro-1H-inden-1-yl)methanol] | < 2800 | > 2800 | > 2800 |
| C=Cc1cc(-c2ccnc3[nH]ncc23)cc(C(C)(C)CN)c1 [Compound 36] | < 500 | < 2800 | < 2800 |
| COCCC(CN)c1cccc(-c2ccnc3[nH]nc(C(F)(F)F)c23)c1 (stereo not drawn) [Compound 284] | < 50 | < 500 | < 2800 |
| FC(F)CC1(c2cccc(-c3ccnc4[nH]ncc34)c2)CNC1 [Compound 191, 4-(3-(3-(2,2-Difluoroethyl)azetidin-3-yl)phenyl)-1H-pyrazolo[3,4-b]pyridine] | < 50 | < 500 | < 500 |
| CCC(C)(C#N)c1cc(CC(F)(F)F)cc(-c2ccnc3[nH]ncc23)c1 (stereo not drawn) [Compound 113] | < 500 | > 2000 | > 1200 |
| N#CC1(c2cc(-c3ccnc4[nH]nc(C(F)(F)F)c34)cc(C(F)(F)CN)c2)CC1 [Compound 311] | < 50 | < 500 | < 500 |
| C=CCc1cc(-c2ccnc3[nH]ncc23)cc(C(C)(C)CN)c1 [Compound 52] | < 500 | < 2800 | < 2800 |
| CC(C)(C#N)c1cc(NCCN)cc(-c2ccnc3[nH]ncc23)c1 [Compound 17] | < 500 | > 2800 | > 2800 |
| Cc1cc(-c2ccnc3[nH]nc(C(F)(F)F)c23)cc(C2(CN)CCC2)c1 [Compound 215] | < 50 | < 500 | < 500 |
| CCC(C)(C#N)c1cc(-c2ccnc3[nH]ncc23)cc(C(F)F)c1 (stereo not drawn) [Compound 110] | < 50 | > 2000 | < 500 |
| CC(C)(CN)c1cc(Br)cc(-c2ccnc3[nH]ncc23)c1 [Compound 34] | < 50 | < 500 | < 2800 |
| CCC(C#N)c1cccc(-c2ccnc3[nH]ncc23)c1 (stereo not drawn) [Compound 66] | < 500 | < 2800 | < 2800 |
| CCc1cc(-c2ccnc3[nH]nc(C(F)(F)F)c23)cc(C(C)(CC)CN)c1 (stereo not drawn) [Compound 271] | < 50 | < 500 | < 500 |
| CC(C)(C#N)c1cccc(-c2ccnc3[nH]ncc23)n1 [Compound 1, 2-(6-(1H-pyrazolo[3,4-b]pyridin-4-yl)pyridin-2-yl)-2-methylpropanenitrile] | < 50 | < 500 | < 500 |
| CC(CN)(CC1CCOCC1)c1cccc(-c2ccnc3[nH]ncc23)c1 (stereo not drawn) [Compound 179] | < 50 | < 500 | < 500 |
| C/C=C\c1cc(-c2ccnc3[nH]ncc23)cc(C(C)(C#N)CC)c1 (stereo not drawn) [Compound 94] | < 500 | > 2800 | > 2800 |

| SMILES | Ki (PKC theta kinase) [nM] | Ki (PKC delta kinase) [nM] | Ki (PKC alpha kinase) [nM] |
| --- | --- | --- | --- |
| Cc1cc(-c2ccnc3[nH]nc(C(F)(F)F)c23)cc(C2(CN)CCOCC2)c1 [Compound 275] | < 50 | < 500 | < 500 |
| CC(C#N)(Cc1cccnc1)c1cccc(-c2ccnc3[nH]ncc23)c1 (stereo not drawn) [Compound 116] | > 700 | > 2000 | > 1200 |
| N#CC1(c2cc(CC(N)=O)cc(-c3ccnc4[nH]nc(C(F)(F)F)c34)c2)CC1 [Compound 329] | < 50 | > 1200 | > 1200 |
| CCC1(c2cccc(-c3ccnc4[nH]ncc34)c2)CNC(=O)O1 (stereo not drawn) [Compound 254] | < 50 | < 500 | < 500 |
| N#CC1(c2cccc(-c3ccnc4[nH]ncc34)c2)CC(F)(F)C1 [Compound 226] | > 700 | > 1200 | > 1200 |
| CC(CN)(Cc1cccnc1)c1cccc(-c2ccnc3[nH]ncc23)c1 (stereo not drawn) [Compound 171] | < 50 | < 500 | < 500 |
| NCc1cccc(-c2ccnc3[nH]nc(C(F)(F)F)c23)c1 [Compound 294] | < 500 | > 1200 | > 1200 |
| CCC(O)(c1cc(C)cc(-c2ccnc3[nH]nc(C(F)(F)F)c23)c1)C1CNC1 (stereo not drawn) [Compound 314] | < 50 | < 500 | < 2800 |
| Cc1cc(-c2ccnc3[nH]ncc23)cc(C2(CN)CCC2)c1 [Compound 145] | < 50 | < 2800 | < 2800 |
| CCC(C)(CN)c1cccc(-c2ccnc3[nH]nc(C(F)(F)F)c23)c1 (stereo not drawn) [Compound 213, 2-methyl-2-(3-(3-(trifluoromethyl)-1H-pyrazolo[3,4-b]pyridin-4-yl)phenyl)butan-1-amine] | < 50 | < 50 | < 50 |
| N#CCC1(c2cccc(-c3ccnc4[nH]ncc34)c2)CCNC1 (stereo not drawn) [Compound 200] | < 50 | < 500 | < 500 |
| COc1ccc(C2(CN)CCC2)cc1-c1ccnc2[nH]ncc12 [Compound 222] | > 700 | > 2000 | > 1200 |
| FC(F)(F)c1n[nH]c2nccc(-c3cccc(C4(COCc5ccccc5)CC4)c3)c12 [Compound 289] | > 700 | > 2000 | > 1200 |
| Cc1cc(-c2ccnc3[nH]nc(C(F)(F)F)c23)cc(C(C)(C)C#N)c1 [Compound 324] | < 50 | > 1200 | < 500 |
| C=CCc1cc(-c2ccnc3[nH]ncc23)cc(C(C)(C)CC#N)c1 [Compound 217] | < 2800 | > 2000 | > 1200 |
| CCC(C)(CN)c1cc(Cl)cc(-c2ccnc3[nH]ncc23)c1 (stereo not drawn) [Compound 133] | < 50 | < 500 | < 500 |
| C#CC1(c2cc(C)cc(-c3ccnc4[nH]ncc34)c2)CNC(=O)O1 (stereo not drawn) [Compound 319] | < 50 | < 500 | < 500 |
| COCCC(C)(CN)c1cccc(-c2ccnc3[nH]nc(C(F)(F)F)c23)c1 (stereo not drawn) [Compound 285] | < 50 | < 500 | < 500 |
